Test results taken from patent US11975009B2, “Use of zinc porphyrin as an antimicrobial” (ZNABLE LLC, priority 2022, dated 2024).

Columns and labels:
[1] = test system: ex-vivo grown lung cells; experiment: Toxicity to ex-vivo grown lung cells versus effective concentration
[2] = test system: A549/U937; assay type: cell-based
Protocol: FIGS. 22A-22B show a lung co-culture (A549/U937) model after 24 hour exposure to ZnPor displaying no toxicity (FIG. 22A) and U937 stained and imaged after 24 hours of dark exposure to 50 μM ZnPor (FIG. 22B).

[3] = test system: PsA; experiment: Mouse model of PsA lung infection; assay type: in vivo, mice
Protocol: Mice were infected with PsA intratracheally, and subsequently treated with 125 μM ZnPor intratracheally. Bronchoalveolar lavage (BAL) was collected at 16 h. Bacterial titers were measured in BAL. *p<0.05, Mann-Whitney U. Representative of one experiment.
Based on in vitro experiments showing significant bactericidal activity of ZnPor against PsA and minimal toxicity of ZnPor in vitro in airway and alveolar epithelial cells as well as in monocytes/macrophages, the next experiments examined efficacy and safety of ZnPor in PsA infection in mice. Wildtype (WT) mice were anesthetized and infected with 5×10^6 CFU PsA via intratracheal route. Immediately following infection, mice were anesthetized again and treated with ZnPor (125 μM) or PBS (negative control). Mice were monitored for clinical signs of toxicity. At 16 h, mice were sacrificed and bronchoalveolar lavage (BAL) and lungs were isolated.

[4] = assay type: physicochemical
Description: As used herein, “water soluble” refers to a property wherein a material is miscible in water, or in other words, is a capable of forming a homogenous solution with water at ambient conditions.

[5] = test system: PsA PAO1; experiment: Minimum inhibitory concentration (MIC) of ZnPor (II)
[6] = test system: phage PEV2; experiment: Inactivation of phage PEV2 (PFU titer); set-up: species or system Pseudomonas phage PEV2
Protocol: Phage PEV2 was diluted to 10^9 PFU/mL in phage buffer and treated with ZnPor (25 μg/mL) for a total of 4 hours. A 300 W light was used to photoactivate ZnPor_light treatments for 20 minutes. Measurements of plaque forming units (PFU/mL) were taken at each timepoint by serially diluting phage to determine titer using a soft agar overlay protocol. Data from 3 separate experiments represents total mean±standard error, total (n=8).

[7] = test system: PsA; experiment: Testing for bacterial resistance; assay type: cell-based, Pseudomonas aeruginosa
Description: One of the major concerns of developing novel small molecule antimicrobials is the potential for bacteria to develop resistance. […] The mechanism of action and target are believed to explain the absence of resistance. An MBC:MIC ratio of 2 which is what we derived from kill curves, was considered an indication of lack of resistance.

[8] = test system: planktonic PsA PAO1 cells; experiment: Syber Green entry into planktonic cells (permeabilization); assay type: cell-based, Pseudomonas aeruginosa; details: pre-treated planktonic PsA cells
Protocol: Syber Green™ can pass through the cell wall into PsA cells pre-treated with ZnPor (II) at concentrations as low as 1 μg/mL; this is below the MIC (4 ug/m). Cells treated with ZnPor (II) allowed the entry of the Syber Green molecule even at sub-MIC concentrations of ZnPor (II).

[9] = test system: S. aureus MSSA and MRSA strains (GP); experiment: Killing activity against a range of bacteria; assay type: cell-based, Staphylococcus aureus
[10] = test system: Mycobacterium tuberculosis; experiment: Killing of acid fast bacterium; assay type: cell-based
Description: ZnPor (II) is the only porphyrin that kills Gram-positive and Gram-negative bacteria without photoactivation. […] Additionally, ZnPor (II) inactivates the bacteriophage PEV2, a well-studied bacteriophage of Pseudomonas aeruginosa. PEV2 is currently being used in phage therapy in Europe. […] While ZnPor (II) can inactivate phage, at lower concentrations it can act synergistically with bacteriophage PEV2 or the purified genome of PEV2 in remediation of biofilms of PsA. This is referred to as PAS Phage Antibiotic Synergy (PAS) and is of great interest and intense study; as a means to overcome several known limitations of phage-only “Phage Therapy”.

[11] = test system: Listeria monocytogenes; experiment: Killing of Listeria inside macrophages; assay type: cell-based; details: macrophages treated with ZnPor (II) vs control
Protocol: A growing number of bacteria are being discovered as having the ability to enter and grow within human cells. The model bacterium used to test this was: Listeria monocytogenes. This bacterium is well known for its ability to survive inside human cells and using actin tails (sourced from the host cell) to propel themselves out of one cell and into another. The L. monocytogenes bacteria were incubated with macrophages. […] Then macrophages were cracked open and plated on antibiotic plates to get a viable count of the number of cells taken up (control) and compared to macrophages treated with ZnPor (II).

[12] = test system: Pseudomonas aeruginosa (GN); experiment: Killing activity against a range of bacteria; assay type: cell-based

meso-5,10,15-tris(N-methyl-4-pyridyl)-20-(pentafluorophenyl)porphyrinatozinc(II), tris-p-toluene sulfonate [ZnPor]
effective concentration, fold lower than that causing any toxicity [1]: up to 100 × | toxicity [2]: no toxicity | bacterial titers in BAL and lung homogenates ([3]; WT mice, 5×10^6 CFU PsA intratracheal, ZnPor 125 μM, 16 h): significantly decreased PsA infection | clinical toxicity ([3]; ZnPor-treated versus untreated mice, 125 μM): No clinical toxicity was observed | water solubility [4]: water soluble | MIC [5]: 4 µg/mL | effect of photoactivation on killing ([6]; with photoactivation): quicker and greater killing | inactivation of viruses ([6]; without light activation): able to inactivate viruses without light activation | effect on bacteriophage PEV2 ([6]; without photoactivation): inactivates | colony growth on LB plates ([7]; 2×, 4× and 8×MIC concentration of ZnPor with PsA cell): No colony growth | resistance ([7]; during 8 years of testing): no resistance was observed | lowest ZnPor (II) concentration allowing Syber Green entry [8]: 1 µg/mL | killing [9]: effective at killing | killing [10]: effective at killing | number of Listeria cells in the macrophages [11]: a log reduction | killing [12]: effective at killing
